Assay results: patent publication US12545659B2, “IRAK degraders and uses thereof” (Kymera Therapeutics, Inc., priority 2019, dated 2026)

System: not given
Assay: not given
Settings: the molecule shown is the open-chain precursor; cn_pd bond; 14-membered ring; BrettPhos Pd G3/Cs2CO3; DMA; 100.0 mM; 90.0 °C

Row | SMILES | ring closure, isolated yield
1 | NC(=O)c1cccc(OCCO[C@H]2CCN(c3cc4nn(C5CCC(CO)CC5)cc4cc3Br)C2)c1 (stereo partly drawn) | 33%

Biological target: T1, IRAK4 (Homo sapiens, UniProt Q9NWZ3)
T1 construct: endogenous in cells; host or cells: OCI-LY10
T1 sequence (Q9NWZ3 1-460): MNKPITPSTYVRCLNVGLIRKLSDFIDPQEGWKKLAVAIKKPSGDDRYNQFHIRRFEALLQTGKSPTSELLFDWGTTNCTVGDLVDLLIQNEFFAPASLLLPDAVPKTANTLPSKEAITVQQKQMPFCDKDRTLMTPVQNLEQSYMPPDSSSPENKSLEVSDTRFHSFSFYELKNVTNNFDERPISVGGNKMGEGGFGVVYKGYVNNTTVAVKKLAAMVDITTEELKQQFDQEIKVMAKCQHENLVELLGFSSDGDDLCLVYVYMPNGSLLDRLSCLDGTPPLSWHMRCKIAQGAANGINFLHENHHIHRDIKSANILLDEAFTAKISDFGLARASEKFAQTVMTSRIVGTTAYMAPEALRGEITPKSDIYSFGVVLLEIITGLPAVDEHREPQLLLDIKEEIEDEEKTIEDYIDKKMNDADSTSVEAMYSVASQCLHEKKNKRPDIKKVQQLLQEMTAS
Assay: IRAK4 MSD Degradation in OCI-LY10
Type: cell-based
Settings: OCI-LY10 cells, 4 hrs incubation, read-out: IRAK4 degradation in OCI-LY10 at 4 hrs: DC50
Procedure, shortened: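 IRAK4 remaining in lysates was read by Meso Scale electrochemiluminescence sandwich (2H9 capture, Y279 plus SULFO-TAG detection). Cells were exposed 4 to 24 h at 37 °C to eight 3-fold dilutions from 1 to 10 μM final top; three-parameter logistic fit gave DC50.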

Row | DC50 | SMILES
2 | < 50 nM | Cn1c(=O)n(C2CCC(=O)NC2=O)c2cccc(C3CCN(C[C@H]4CC[C@H](n5cc6cc(NC(=O)c7cnccn7)c(C(C)(C)O)cc6n5)CC4)CC3)c21 (stereo partly drawn) [I-320]
3 | < 50 nM | CN(C[C@H]1CC[C@H](n2cc3cc(NC(=O)c4cccc(C5CC5)n4)c(C(C)(C)O)cc3n2)CC1)C1CCN(Cc2cccc3c2n(C)c(=O)n3C2CCC(=O)NC2=O)CC1 (stereo partly drawn) [I-322]
4 | < 50 nM | COc1cc2nn([C@H]3CC[C@H](CN4CCC(c5cccc6c5n(C)c(=O)n6C5CCC(=O)NC5=O)CC4)CC3)cc2cc1NC(=O)c1ccncn1 (stereo partly drawn) [I-324]
5 | < 50 nM | COc1cc2nn([C@H]3CC[C@H](CN4CCC(c5cccc6c5n(C)c(=O)n6C5CCC(=O)NC5=O)CC4)CC3)cc2cc1NC(=O)c1coc(C)n1 (stereo partly drawn) [I-325]
6 | < 50 nM | COc1cc2nn([C@H]3CC[C@H](CN4CCC(c5cccc6c5n(C)c(=O)n6C5CCC(=O)NC5=O)CC4)CC3)cc2cc1NC(=O)c1cnccn1 (stereo partly drawn) [I-327]
7 | < 50 nM | COc1cc2nn([C@H]3CC[C@H](CN4CCC(c5cccc6c5n(C)c(=O)n6C5CCC(=O)NC5=O)CC4)CC3)cc2cc1NC(=O)c1cccc(C)n1 (stereo partly drawn) [I-328]
8 | < 50 nM | COc1cc2nn([C@H]3CC[C@H](CN(C)C4CCN(c5cccc6c5n(C)c(=O)n6C5CCC(=O)NC5=O)CC4)CC3)cc2cc1NC(=O)c1ccccn1 (stereo partly drawn) [I-329]

More lines, now with the values behind:

Row | SMILES | DC50
9 | COc1cc2nn([C@H]3CC[C@H](CN(C)C4CCN(c5cccc6c5n(C)c(=O)n6C5CCC(=O)NC5=O)CC4)CC3)cc2cc1NC(=O)c1cccc(C(F)(F)F)n1 (stereo partly drawn) [I-247, N-[2-[4-[[[1-[1-(2,6-dioxo-3-piperidyl)-3-methyl-2-oxo-benzimidazol-4-yl]-4-piperidyl]-methyl-amino]methyl]cyclohexyl]-6-methoxy-indazol-5-yl]-6-(trifluoromethyl)pyridine-2-carboxamide] | < 50 nM
10 | Cn1c(=O)n(C2CCC(=O)NC2=O)c2cccc(CCC3CC4(CCN(C[C@H]5CC[C@H](n6cc7cc(NC(=O)c8cnn9cccnc89)c(C(F)F)cc7n6)CC5)CC4)C3)c21 (stereo partly drawn) [I-299] | < 50 nM
11 | Cn1c(=O)n(C2CCC(=O)NC2=O)c2cccc(CCCC3CCN(C[C@H]4CC[C@H](n5cc6cc(NC(=O)c7cccc(C(F)(F)F)n7)c(C(F)F)cc6n5)CC4)CC3)c21 (stereo partly drawn) [I-300] | 50 to 100 nM
12 | CN(CCO[C@H]1C[C@H](Cc2cccc3c2n(C)c(=O)n3C2CCC(=O)NC2=O)C1)C[C@H]1CC[C@H](n2cc3cc(NC(=O)c4cccc(C(F)(F)F)n4)c(C(F)F)cc3n2)CC1 (stereo partly drawn) [I-309] | 50 to 100 nM
13 | CN(C[C@H]1CC[C@H](n2cc3cc(NC(=O)c4cccc(C(F)(F)F)n4)c(C(C)(C)O)cc3n2)CC1)c1cccc2c1n(C)c(=O)n2C1CCC(=O)NC1=O (stereo partly drawn) [I-310, N-[2-[4-[[[1-(2,6-dioxo-3-piperidyl)-3-methyl-2-oxo-benzimidazol-4-yl]-methyl-amino]methyl]cyclohexyl]-6-(1-hydroxy-1-methyl-ethyl)indazol-5-yl]-6-(trifluoromethyl)pyridine-2-carboxamide] | 500 to 1000 nM

Same assay, conditions: OCI-LY10 cells, 24 hrs incubation, read-out: IRAK4 degradation in OCI-LY10 at 24 hrs: DC50

Row | DC50 | SMILES
14 | 500 to 1000 nM | C[C@@]1(CN2CCC3(CC2)CC(CCNc2cccc4c2C(=O)N(C2CCC(=O)NC2=O)C4=O)C3)Cc2cc(NC(=O)c3cccc(C(F)(F)F)n3)c(N3CCOCC3)cc2O1 (stereo partly drawn) [I-319, N-((2S)-2-((2-(2-((2-(2,6-dioxopiperidin-3-yl)-1,3-dioxoisoindolin-4-yl)amino)ethyl)-7-azaspiro[3.5]nonan-7-yl)methyl)-2-methyl-6-morpholino-2,3-dihydrobenzofuran-5-yl)-6-(trifluoromethyl)picolinamide]
15 | < 50 nM | COc1cc2nc([C@H]3CC[C@H](CN4CCC5(CC4)CC(Nc4cccc6c4C(=O)N(C4CCC(=O)NC4=O)C6=O)C5)CC3)oc2cc1NC(=O)c1cnn2cccnc12 (stereo partly drawn) [I-321]
16 | 500 to 1000 nM | C[C@]1(CN2CCC3(CC2)CC(CCNc2cccc4c2C(=O)N(C2CCC(=O)NC2=O)C4=O)C3)Cc2cc(NC(=O)c3cccc(C(F)(F)F)n3)c(N3CCOCC3)cc2O1 (stereo partly drawn) [I-326, N-[(2R)-2-[[2-[2-[[2-(2,6-dioxo-3-piperidyl)-1,3-dioxo-isoindolin-4-yl]amino]ethyl]-7-azaspiro[3.5]nonan-7-yl]methyl]-2-methyl-6-morpholino-3H-benzofuran-5-yl]-6-(trifluoromethyl)pyridine-2-carboxamide]
17 | 50 to 100 nM | COc1cc2c(cc1NC(=O)c1cccc(C(F)(F)F)n1)CN([C@H]1CC[C@H](CN3CC4(CC(CCNc5cccc6c5C(=O)N(C5CCC(=O)NC5=O)C6=O)C4)C3)CC1)C2=O (stereo partly drawn) [I-331]
18 | < 50 nM | COc1cc2nn([C@H]3CC[C@H](CN4CC5(CC([C@H](C)CNc6cccc7c6C(=O)N(C6CCC(=O)NC6=O)C7=O)C5)C4)CC3)cc2cc1NC(=O)c1cccc(C(F)(F)F)n1 (stereo partly drawn) [I-332]

Second part, the compound before the results:

Row | SMILES | DC50
19 | O=C1CCC(N2C(=O)c3ccc(NCC4CC5(C4)CN(C[C@H]4CC[C@H](n6cc7cc(NC(=O)c8cccc(S(F)(F)(F)(F)F)n8)c(N8CCCCC8)cc7n6)CC4)C5)cc3C2=O)C(=O)N1 (stereo partly drawn) [I-297] | 100 to 500 nM
20 | Cc1cccc(C(=O)Nc2cc3cn([C@H]4CC[C@H](CN5CCC(COCCCNc6cccc7c6C(=O)N(C6CCC(=O)NC6=O)C7=O)CC5)CC4)nc3cc2C(C)(C)O)n1 (stereo partly drawn) [I-304] | < 50 nM
21 | COc1cc2nn([C@H]3CC[C@H](CN4CCC(O[C@H]5C[C@H](Nc6cccc7c6C(=O)N(C6CCC(=O)NC6=O)C7=O)C5)CC4)CC3)cc2cc1NC(=O)c1cccc(C(C)(C)F)n1 (stereo partly drawn) [I-305] | 50 to 100 nM
22 | CN(C[C@H]1CC[C@H](n2cc3cc(NC(=O)c4cccc(C(C)(C)F)n4)c(C(C)(C)O)cc3n2)CC1)[C@H]1CC[C@H](Nc2cccc3c2C(=O)N(C2CCC(=O)NC2=O)C3=O)CC1 (stereo partly drawn) [I-306] | < 50 nM
23 | Cc1nc(C(=O)Nc2cc3cn([C@H]4CC[C@H](CN(C)[C@H]5CC[C@H](CNc6cccc7c6C(=O)N(C6CCC(=O)NC6=O)C7=O)CC5)CC4)nc3cc2C(C)(C)O)ccc1F (stereo partly drawn) [I-308] | 50 to 100 nM
24 | COc1cc2nn([C@H]3CC[C@H](CN4CCC(O[C@H]5CC[C@H](CNc6cccc7c6C(=O)N(C6CCC(=O)NC6=O)C7=O)CC5)CC4)CC3)cc2cc1NC(=O)c1cccc(C(C)(C)F)n1 (stereo partly drawn) [I-311] | 50 to 100 nM
25 | CC(C)(O)c1cc2nn([C@H]3CC[C@H](CN4CCC(O[C@H]5C[C@H](Nc6cccc7c6C(=O)N(C6CCC(=O)NC6=O)C7=O)C5)CC4)CC3)cc2cc1NC(=O)c1cccc(C(F)(F)F)n1 (stereo partly drawn) [I-312] | < 50 nM
26 | CC(C)(O)c1cc2nn([C@H]3CC[C@H](CN4CCC5(CC4)CC(Nc4cccc6c4C(=O)N(C4CCC(=O)NC4=O)C6=O)C5)CC3)cc2cc1NC(=O)c1cccc(C(F)(F)F)n1 (stereo partly drawn) [I-313] | < 50 nM
27 | O=C1CCC(N2C(=O)c3cccc(NCCC4CC5(CCN(C[C@H]6CC[C@H](c7nc8cc(N9CCC(CO)CC9)c(NC(=O)c9cccc(C(F)(F)F)n9)cc8o7)CC6)CC5)C4)c3C2=O)C(=O)N1 (stereo partly drawn) [I-314] | 100 to 500 nM
28 | COc1c(NC(=O)c2cccc(C(C)(C)F)n2)cc2cn([C@H]3CC[C@H](CN4CC5(CC(CCNc6cccc7c6C(=O)N(C6CCC(=O)NC6=O)C7=O)C5)C4)CC3)nc2c1C (stereo partly drawn) [I-315] | 50 to 100 nM
29 | COc1cc2nn([C@H]3CC[C@H](CN4CCC5(CC4)CC(CNc4cccc6c4C(=O)N(C4CCC(=O)NC4=O)C6=O)C5)CC3)cc2cc1NC(=O)c1coc(-c2ccnc(C)c2)n1 (stereo partly drawn) [I-316] | 50 to 100 nM
30 | COc1cc2nn([C@H]3CC[C@H](CN(C)[C@H]4CC[C@@]5(CC4)C[C@@H](CNc4cccc6c4C(=O)N(C4CCC(=O)NC4=O)C6=O)C5)CC3)cc2cc1NC(=O)c1cccc(C(F)(F)F)n1 (stereo partly drawn) [I-317] | 50 to 100 nM
31 | COc1cc2nn([C@H]3CC[C@H](CN(C)[C@H]4CC[C@H](Nc5cccc6c5C(=O)N(C5CCC(=O)NC5=O)C6=O)CC4)CC3)cc2cc1NC(=O)c1cccc(S(F)(F)(F)(F)F)n1 (stereo partly drawn) [I-318] | 50 to 100 nM
32 | CN(CCCO[C@H]1C[C@H](Nc2cccc3c2C(=O)N(C2CCC(=O)NC2=O)C3=O)C1)C[C@]1(C)Cc2cc(NC(=O)c3cccc(C(F)(F)F)n3)c(N3CCOCC3)cc2O1 (stereo partly drawn) [I-330, N-[(2S)-2-[[3-[3-[[2-(2,6-dioxo-3-piperidyl)-1,3-dioxo-isoindolin-4-yl]amino]cyclobutoxy]propyl-methyl-amino]methyl]-2-methyl-6-morpholino-3H-benzofuran-5-yl]-6-(trifluoromethyl)pyridine-2-carboxamide] | 500 to 1000 nM

System: OCI-LY10 cells
Assay: CTG Cell Viability Assay - OCI-LY10
Type: cell-based
Settings: Homo sapiens, 96 h; OCI-LY10 cells, 4 days, CellTiter-Glo; read-out: CTG Cell Viability Assay - OCI-LY10: IC50
Protocol: Compound-mediated viability effect on OCI-LY10 or SUDHL-2 was quantitatively determined using the CellTiter-Glo® Luminescent Cell Viability Assay kit from Promega (Catalog number G7570) following manufacturer's recommended procedures. Briefly, OCI-LY10 or SUDHL-2 cells were seeded into 384 well plates (Grenier Bio-One, Catalog number 781080) with a density of 10,000 cells per well. Compounds were then added to the assay plate with final top concentration of 10 M and 1:3 dilution series with total of 9 doses. The final DMSO concentration was normalized to 0.2%. The assay plates were incubated at 37° C. for 4 days under 5% CO2. Then the assay plate was equilibrated at room temperature for 10 minutes. To determine cell viability, L CellTiter Glo reagent was added to each well and the assay plate was centrifuged at 1000 rpm for 30 second, incubated at room temperature for 10 min, and analyzed by detecting the luminescence using a multimode plate reader (EnVision 2105, PerkinElmer). The data was then analyzed by software Prism 7.0 from GraphPad and the dose response curves were fit using a three-parameter logistic equation to calculate IC50.

Row | IC50 | SMILES
33 | > 1000 nM | COc1cc2nn([C@H]3CC[C@H](CN(C)C4CCN(c5cccc6c5n(C)c(=O)n6C5CCC(=O)NC5=O)CC4)CC3)cc2cc1NC(=O)c1cccc(C(F)(F)F)n1 (stereo partly drawn) [I-247, N-[2-[4-[[[1-[1-(2,6-dioxo-3-piperidyl)-3-methyl-2-oxo-benzimidazol-4-yl]-4-piperidyl]-methyl-amino]methyl]cyclohexyl]-6-methoxy-indazol-5-yl]-6-(trifluoromethyl)pyridine-2-carboxamide]
